Calls of active or inactive are those of the source. The rule behind the calls is not given here.
Assays:
[1] = target: T1, P2Y purinoceptor 6 (Homo sapiens, UniProt Q15077); assay: Antagonist activity at human P2Y6R expressed in HEK293 cells assessed as inhibition of UDP-induced IP3 production preincubated for 0.5 hrs followed by UDP stimulation and measured after 12 hrs by ELISA analysis; format: functional, cell-based
[2] = target: T1, P2Y purinoceptor 6; assay: Binding affinity to human recombinant P2Y6R expressed in HEK293 cells at 500 uM pretreated for 1 hrs followed by pulldown using streptavidin agarose resin by Western blot analysis; format: cell-based; settings: filed as antagonist
[3] = target: P2Y purinoceptor 12 (Homo sapiens, UniProt Q9H244); assay: Antagonist activity at human P2Y12R expressed in HEK293 cells assessed as inhibition of MeSADP-induced cAMP production preincubated for 0.5 hrs followed by MeSADP stimulation by cAMP-glo analysis; format: functional, cell-based
P2Y purinoceptor 12, sequence (Q9H244 whole entry): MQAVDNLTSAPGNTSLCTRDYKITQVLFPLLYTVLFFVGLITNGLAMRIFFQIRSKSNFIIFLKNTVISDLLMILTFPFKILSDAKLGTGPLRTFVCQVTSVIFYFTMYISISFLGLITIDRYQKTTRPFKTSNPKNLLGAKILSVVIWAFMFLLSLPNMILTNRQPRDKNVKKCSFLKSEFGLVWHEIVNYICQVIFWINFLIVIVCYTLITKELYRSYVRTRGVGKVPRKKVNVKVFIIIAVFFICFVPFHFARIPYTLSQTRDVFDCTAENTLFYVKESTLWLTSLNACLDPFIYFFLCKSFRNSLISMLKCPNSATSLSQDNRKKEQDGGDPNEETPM

[4] = target: T1, P2Y purinoceptor 6; assay: Antagonist activity at P2Y6R (unknown origin)

T1 sequence (Q15077 whole entry): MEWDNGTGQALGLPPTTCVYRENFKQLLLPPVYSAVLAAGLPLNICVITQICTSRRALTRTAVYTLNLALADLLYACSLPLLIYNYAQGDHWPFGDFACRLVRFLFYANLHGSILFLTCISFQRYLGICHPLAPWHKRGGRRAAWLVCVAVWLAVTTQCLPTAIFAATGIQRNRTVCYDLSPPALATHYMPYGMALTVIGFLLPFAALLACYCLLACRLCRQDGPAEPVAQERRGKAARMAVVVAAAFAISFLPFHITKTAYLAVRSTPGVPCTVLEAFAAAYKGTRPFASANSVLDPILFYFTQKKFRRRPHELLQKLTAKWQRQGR

Structure (SMILES)	IC50 [1] [µM]	further results
O=C(O)CCC(=O)N1N=C(c2nc3cc(Cl)ccc3[nH]2)CC1c1ccco1 (stereo not drawn)	0.457	–
Cc1ccc2cc(C3CC(c4ccco4)=NN3C(=O)CCC(=O)O)c(Cl)nc2c1 (stereo not drawn)	0.126	–
CC(C)(C)n1nc(-c2nc3cc(C(=O)NCCOCCOCCOCCNC(=O)CCCC[C@@H]4SC[C@@H]5NC(=O)N[C@@H]54)ccc3[nH]2)cc1-c1ccco1	–	Activity [2]: Active
CCCSc1nc(N[C@@H]2C[C@H]2c2ccc(F)c(F)c2)c2nnn([C@@H]3C[C@H](OCCO)[C@@H](O)[C@H]3O)c2n1 [TICAGRELOR]	–	IC50 [3]: 1.4 µM
O=S(=O)(O)c1cc(N=C=S)ccc1/C=C/c1ccc(N=C=S)cc1S(=O)(=O)O	–	IC50 [4]: 5.2 µM
CC(C)(C)n1nc(-c2nc3ccccc3[nH]2)cc1-c1ccccc1	0.0492	–
CC(C)(C)n1nc(-c2nc3ccccc3o2)cc1-c1ccccc1	0.173	–
Cc1ccc2oc(-c3cc(-c4ccc[nH]4)n(C(C)(C)C)n3)nc2c1	0.256	–

Further lines, with some results ahead:

IC50 [1] [µM]	Structure (SMILES)	further results
0.216	CC(C)(C)n1nc(-c2nc3cc(Cl)ccc3[nH]2)cc1-c1ccccc1	–
0.0126	CC(C)(C)n1nc(-c2nc3cc([N+](=O)[O-])ccc3[nH]2)cc1-c1ccco1	–
0.0942	Cc1cccc2oc(-c3cc(-c4ccco4)n(C(C)(C)C)n3)nc12	–
0.0457	CC(C)(C)n1nc(-c2nc3cc(Br)ccc3[nH]2)cc1-c1ccco1	–
0.0935	CC(C)(C)n1nc(-c2nc3c(Cl)cccc3[nH]2)cc1-c1ccco1	–

— ChEMBL document CHEMBL5380866, “Discovery of Selective P2Y6R Antagonists with High Affinity and In Vivo Efficacy for Inflammatory Disease Therapy” (J Med Chem, 2023)
